Data from article PMC4735867, “Leukotriene E4 is a full functional agonist for human cysteinyl leukotriene type 1 receptor-dependent gene expression” (Scientific Reports, 2016).

Target: T1, CysLT1 (cysteinyl leukotriene type 1 receptor) (Homo sapiens, UniProt Q9Y271)
T1 construct: gene CYSLTR1
T1 sequence (Q9Y271 1-337): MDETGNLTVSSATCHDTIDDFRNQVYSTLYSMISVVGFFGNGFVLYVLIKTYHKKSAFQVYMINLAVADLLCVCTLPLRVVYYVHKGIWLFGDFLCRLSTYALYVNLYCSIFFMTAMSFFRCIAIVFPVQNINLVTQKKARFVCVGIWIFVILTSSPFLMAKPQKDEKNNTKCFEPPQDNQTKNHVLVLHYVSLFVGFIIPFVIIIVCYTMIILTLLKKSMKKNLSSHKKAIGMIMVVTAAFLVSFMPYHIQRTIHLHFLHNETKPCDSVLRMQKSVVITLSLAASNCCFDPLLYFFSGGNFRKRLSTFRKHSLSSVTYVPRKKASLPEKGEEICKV
Type: cell-based

For `CC(C)(O)c1ccccc1CC[C@@H](SCC1(CC(=O)O)CC1)c1cccc(/C=C/c2ccc3ccc(Cl)cc3n2)c1` [Montelukast], the “antagonism (100 nmol/L) of LTD4/LTE4-induced calcium mobilisation and CCL4 expre” value was “Montelukast fully inhibiting LTE4 responses in LAD2 as well as LTD4 responses in LAD2 and LUVA cells”.
